This is an account of results in paper PMC3242641 (European journal of medicinal chemistry, 2011).

Broadly, the EC50 is the midpoint of the concentration-response curve. As usually defined, the EC90 is the concentration needed for an effect of 90%. By IC50 is commonly meant the concentration needed to halve the response being measured. A low value points to greater potency in that assay.

In one data set the test system is wild-type HBV. As to the kind of experiment: Anti-HBV activity, HepG2 AD38 system. It counts as cell-based. The following applies: read-out: Anti-HBV activity EC50.
The next data set deals with HIV-1. In kind it is cell-based.
Data set [1] concerns PBM cells.
The target of data set [2] is T1, WT HIV-1 RT (Human immunodeficiency virus type 1 group M subtype B, UniProt P04585). It counts as biochemical.
In a further data set the test system is human PBM cells. The following applies: 4 h at 50 μM, PHA activated human PBM cells, 37 °C.
Data set [3] concerns PBM cells. Put plainly: Cytotoxicity in PBM cells. Conditions: cell type not named in the sentence (PBM, CEM and Vero were tested).
The target in data set [4] is T1, WT HIV-1 RT. Conditions: read-out: K, dNTP; cited from earlier work.

Some results are limits rather than exact numbers.

For “9-(3-Azido-2,3-dideoxy-β-L-ribofuranosyl)-2-fluoro-6-aminopurine [Compound 26]”, the EC50 with wild-type HBV was above 100 µM. Also, the EC90 in the data set with HIV-1 (read-out: Anti-HIV activity EC90) was above 100 µM. For the same compound, the half-maximal inhibitory concentration (IC50) with PBM cells [1], with Vero cells and in the data set on CEM cells was above 100 µM each time.
`Nc1ccn([C@@H]2CS[C@H](COP(=O)(O)OP(=O)(O)OP(=O)(O)O)O2)c(=O)n1` [Compound 3TC-TP]: the “Incorporation, fold better than the L-3′-azido-ddNTPs” value at WT HIV-1 RT [2] is on record as 12-500 fold.
Regarding `[N-]=[N+]=N[C@@H]1C[C@@H](n2cnc3c(Cl)ncnc32)O[C@H]1CO` [Compound 7, 9-(3-Azido-2,3-dideoxy-β-L-ribofuranosyl)-6-chloro-9H-purine], the “Amount of intracellular nucleoside triphosphate (TP) detected” value (from here on “Amount … (TP) detected”) with human PBM cells is “no detectable TPs”.
Consider `COc1ncnc2c1ncn2[C@@H]1C[C@@H](N=[N+]=[N-])[C@H](CO)O1` [Compound 9, 9-(3-Azido-2,3-dideoxy-β-L-ribofuranosyl)-6-methoxyl-9H-purine], for which the “Amount … (TP) detected” value in the data set with human PBM cells was “below the level of detection”.
As for `CCOC(=O)[C@H](C)NP(=O)(OC[C@@H]1O[C@H](n2cnc3c(N)ncnc32)C[C@H]1N=[N+]=[N-])Oc1ccccc1` (stereo partly drawn) [Compound 11, 3′-Azido-2′, 3′-dideoxy-β-L-adenosine-5′-O-[phenyl-(ethoxy-L-alaninyl)]-phosphate], the “Increase in anti-HIV activity versus 10” value with HIV-1 is listed as 45 fold.
For `CNc1ncnc2c1ncn2[C@@H]1C[C@@H](N=[N+]=[N-])[C@H](CO)O1` [Compound 12, 9-(3-Azido-2,3-dideoxy-β-L-ribofuranosyl)-6-methylamino-9H-purine], in the data set on human PBM cells, the “Amount … (TP) detected” value is listed as “below the level of detection”.
As for `CCOC(=O)[C@H](C)NP(=O)(OC[C@@H]1O[C@H](n2cnc3c(O)nc(N)nc32)C[C@H]1N=[N+]=[N-])Oc1ccccc1` (stereo partly drawn) [Compound 16, 3′-Azido-2′, 3′-dideoxy-β-L-guanosine-5′-O-[phenyl-(ethoxy-L-alaninyl)]-phosphate], in the data set with HIV-1, the “Anti-HIV-1 activity, in words” value is “inactive”.
With `[N-]=[N+]=N[C@@H]1C[C@@H](n2cnc3c(Cl)nc(N)nc32)O[C@H]1CO` [Compound 17, 9-(3-Azido-2,3-dideoxy-β-L-ribofuranosyl)-2-amino-6-chloropurine], the “Amount … (TP) detected” value in the data set with human PBM cells is “no detectable TPs”.
For `CCOC(=O)[C@H](C)NP(=O)(OC[C@@H]1O[C@H](n2cnc3c(Cl)nc(N)nc32)C[C@H]1N=[N+]=[N-])Oc1ccccc1` (stereo partly drawn) [Compound 18, 9-(3-Azido-2,3-dideoxy-β-L-ribofuranosyl)-2-amino-6-chloropurine-5-O-[phenyl-(ethoxy-L-alaninyl)]-phosphate], in the data set with human PBM cells, the “Amount of intracellular intact prodrug detected” value came to 12 fmol/10^6 cells.
Consider `CCOC(=O)[C@H](C)NP(=O)(OC[C@@H]1O[C@H](n2cnc3c(N)nc(N)nc32)C[C@H]1N=[N+]=[N-])Oc1ccccc1` (stereo partly drawn) [Compound 22, 9-(3-Azido-2,3-dideoxy-β-L-ribofuranosyl) -2,6-diaminopurine-5-O-(phenyl-[ethoxyl-L-alaninyl])-phosphate], for which the “Observed toxicity (no toxicity up to)” value in the data set with PBM cells [3] is above 100 µM.
Take `Cc1cn([C@H]2C[C@H](N=[N+]=[N-])[C@@H](CO)O2)c(=O)[nH]c1=O` [Compound 27, 3′-Azido-2′-3′-dideoxy-β-L-thymidine]: the “Anti-HIV-1 activity, in words” value with HIV-1 was “inactive”.
Take `CCOC(=O)[C@H](C)NP(=O)(OC[C@@H]1O[C@H](n2cc(C)c(=O)[nH]c2=O)C[C@H]1N=[N+]=[N-])Oc1ccccc1` (stereo partly drawn) [Compound 28, 1-(3′-Azido-2′, 3′-dideoxy-β-L-thymidine)-O-(phenyl-[ethoxyl-L-alaniny])-phosphate]: the “Anti-HIV-1 activity, in words” value in the data set with HIV-1 was “inactive”.
In the case of `Nc1ccn([C@H]2C[C@H](O)[C@@H](COP(=O)(O)OP(=O)(O)OP(=O)(O)O)O2)c(=O)n1` [dCTP], the Kd at WT HIV-1 RT [4] was 1.1 ± 0.4 µM.
